Assays:
[1] = system: Escherichia coli; test: Antibacterial activity against Escherichia coli ATCC 8739 after 24 hrs by broth microdilution method; type: functional
[2] = system: Klebsiella pneumoniae; test: Antibacterial activity against Klebsiella pneumoniae D 11750/08 after 24 hrs by broth microdilution method; type: functional
[3] = system: Klebsiella pneumoniae; test: Antibacterial activity against extended spectrum beta-lactamase producing Klebsiella pneumoniae J 14368/08 after 24 hrs by broth microdilution method; type: functional
[4] = system: Pseudomonas aeruginosa; test: Antibacterial activity against Pseudomonas aeruginosa ATCC 9027 after 24 hrs by broth microdilution method; type: functional
[5] = system: Staphylococcus aureus; test: Antibacterial activity against Staphylococcus aureus ATCC 6538 after 24 hrs by broth microdilution method; type: functional; conditions: ATCC 6538, 24 h
[6] = system: Staphylococcus aureus; test: Antibacterial activity against methicillin-resistant Staphylococcus aureus H 5996/08 after 24 hrs by broth microdilution method; type: functional; conditions: H 5996/08, 24 h
[7] = system: Staphylococcus epidermidis; test: Antibacterial activity against Staphylococcus epidermidis H 6966/08 after 24 hrs by broth microdilution method; type: functional; conditions: H 6966/08, 24 h
[8] = system: Enterococcus faecalis; test: Antibacterial activity against Enterococcus faecalis J 14365/08 after 24 hrs by broth microdilution method; type: functional; conditions: J 14365/08, 24 h
[9] = system: Candida albicans; test: Antifungal activity against Candida albicans ATCC 44859 after 24 hrs by broth microdilution method; type: functional; conditions: ATCC 44859, 24 h
[10] = system: Candida tropicalis; test: Antifungal activity against Candida tropicalis 156 after 24 hrs by broth microdilution method; type: functional; conditions: Candida tropicalis, 156, 24 h
[11] = system: Pichia kudriavzevii; test: Antifungal activity against Candida krusei E28 after 24 hrs by broth microdilution method; type: functional; conditions: E28, 24 h
[12] = system: Nakaseomyces glabratus; test: Antifungal activity against Candida glabrata 20/I after 24 hrs by broth microdilution method; type: functional
[13] = system: Trichosporon asahii; test: Antifungal activity against Trichosporon asahii 1188 after 24 hrs by broth microdilution method; type: functional; conditions: Trichosporon asahii, 1188, 24 h
[14] = system: Aspergillus fumigatus; test: Antifungal activity against Aspergillus fumigatus 231 after 24 hrs by broth microdilution method; type: functional, organism-based; conditions: Aspergillus fumigatus, 231, 24 h
[15] = system: Lichtheimia corymbifera; test: Antifungal activity against Absidia corymbifera 272 after 24 hrs by broth microdilution method; type: functional, organism-based; conditions: Lichtheimia corymbifera, 272, 24 h
[16] = system: Trichophyton mentagrophytes; test: Antifungal activity against Trichophyton mentagrophytes 445 after 72 hrs by broth microdilution method; type: functional, organism-based; conditions: Trichophyton mentagrophytes, 445, 72 h
[17] = system: Pseudomonas aeruginosa; test: Antibacterial activity against Pseudomonas aeruginosa ATCC 9027 after 48 hrs by broth microdilution method; type: functional; conditions: ATCC 9027, 48 h
[18] = system: Candida albicans; test: Antifungal activity against Candida albicans ATCC 44859 after 48 hrs by broth microdilution method; type: functional; conditions: ATCC 44859, 48 h
[19] = system: Candida tropicalis; test: Antifungal activity against Candida tropicalis 156 after 48 hrs by broth microdilution method; type: functional; conditions: Candida tropicalis, 156, 48 h
[20] = system: Pichia kudriavzevii; test: Antifungal activity against Candida krusei E28 after 48 hrs by broth microdilution method; type: functional; conditions: E28, 48 h
[21] = system: Nakaseomyces glabratus; test: Antifungal activity against Candida glabrata 20/I after 48 hrs by broth microdilution method; type: functional
[22] = system: Trichosporon asahii; test: Antifungal activity against Trichosporon asahii 1188 after 48 hrs by broth microdilution method; type: functional; conditions: Trichosporon asahii, 1188, 48 h
[23] = system: Aspergillus fumigatus; test: Antifungal activity against Aspergillus fumigatus 231 after 48 hrs by broth microdilution method; type: functional, organism-based; conditions: Aspergillus fumigatus, 231, 48 h
[24] = system: Lichtheimia corymbifera; test: Antifungal activity against Absidia corymbifera 272 after 48 hrs by broth microdilution method; type: functional, organism-based; conditions: Lichtheimia corymbifera, 272, 48 h
[25] = system: Trichophyton mentagrophytes; test: Antifungal activity against Trichophyton mentagrophytes 445 after 120 hrs by broth microdilution method; type: functional, organism-based; conditions: Trichophyton mentagrophytes, 445, 120 h
[26] = system: Mycobacterium tuberculosis; test: Antimycobacterial activity against Mycobacterium tuberculosis CNCTC My 331/88 after 14 days by micromethod; type: functional; conditions: CNCTC My 331/88, 336 h
[27] = system: Mycobacterium tuberculosis; test: Antimycobacterial activity against Mycobacterium tuberculosis CNCTC My 331/88 after 21 days by micromethod; type: functional; conditions: CNCTC My 331/88, 504 h
[28] = system: Mycobacterium avium; test: Antimycobacterial activity against Mycobacterium avium CNCTC My 330/88 after 14 days by micromethod; type: functional; conditions: CNCTC My 330/88, 336 h
[29] = system: Mycobacterium avium; test: Antimycobacterial activity against Mycobacterium avium CNCTC My 330/88 after 21 days by micromethod; type: functional; conditions: CNCTC My 330/88, 504 h
[30] = system: Mycobacterium kansasii; test: Antimycobacterial activity against Mycobacterium kansasii CNCTC My 235/80 after 7 days by micromethod; type: functional; conditions: CNCTC My 235/80, 168 h
[31] = system: Mycobacterium kansasii; test: Antimycobacterial activity against Mycobacterium kansasii CNCTC My 235/80 after 14 days by micromethod; type: functional; conditions: CNCTC My 235/80, 336 h
[32] = system: Mycobacterium kansasii; test: Antimycobacterial activity against Mycobacterium kansasii CNCTC My 235/80 after 21 days by micromethod; type: functional; conditions: CNCTC My 235/80, 504 h
[33] = system: Mycobacterium kansasii; test: Antimycobacterial activity against Mycobacterium kansasii 6509/96 after 7 days by micromethod; type: functional; conditions: 6509/96, 168 h
[34] = system: Mycobacterium kansasii; test: Antimycobacterial activity against Mycobacterium kansasii 6509/96 after 14 days by micromethod; type: functional; conditions: 6509/96, 336 h
[35] = system: Mycobacterium kansasii; test: Antimycobacterial activity against Mycobacterium kansasii 6509/96 after 21 days by micromethod; type: functional; conditions: 6509/96, 504 h
[36] = system: Staphylococcus aureus; test: Antibacterial activity against Staphylococcus aureus ATCC 6538 after 48 hrs by broth microdilution method; type: functional; conditions: ATCC 6538, 48 h
[37] = system: Staphylococcus aureus; test: Antibacterial activity against methicillin-resistant Staphylococcus aureus H 5996/08 after 48 hrs by broth microdilution method; type: functional; conditions: H 5996/08, 48 h
[38] = system: Staphylococcus epidermidis; test: Antibacterial activity against Staphylococcus epidermidis H 6966/08 after 48 hrs by broth microdilution method; type: functional; conditions: H 6966/08, 48 h
[39] = system: Enterococcus faecalis; test: Antibacterial activity against Enterococcus faecalis J 14365/08 after 48 hrs by broth microdilution method; type: functional; conditions: J 14365/08, 48 h
[40] = system: Escherichia coli; test: Antibacterial activity against Escherichia coli ATCC 8739 after 48 hrs by broth microdilution method; type: functional; conditions: ATCC 8739, ATCC 8739, 48 h
[41] = system: Klebsiella pneumoniae; test: Antibacterial activity against Klebsiella pneumoniae D 11750/08 after 48 hrs by broth microdilution method; type: functional; conditions: D 11750/08, 48 h
[42] = system: Klebsiella pneumoniae; test: Antibacterial activity against extended spectrum beta-lactamase producing Klebsiella pneumoniae J 14368/08 after 48 hrs by broth microdilution method; type: functional; conditions: J 14368/08, 48 h

GENTAMICIN
1 µM: IC95 [4]
0.26 µM: IC95 [1] | IC95 [2] | IC95 [3]

CN[C@H](CC(C)C)C(=O)N[C@H]1C(=O)N[C@@H](CC(N)=O)C(=O)N[C@H]2C(=O)N[C@H]3C(=O)N[C@H](C(=O)N[C@H](C(=O)O)c4cc(O)cc(O)c4-c4cc3ccc4O)[C@H](O)c3ccc(c(Cl)c3)Oc3cc2cc(c3O[C@@H]2O[C@H](CO)[C@@H](O)[C@H](O)[C@H]2O[C@H]2C[C@](C)(N)[C@H](O)[C@H](C)O2)Oc2ccc(cc2Cl)[C@H]1O [VANCOMYCIN]
0.35 µM: IC95 [5] | IC95 [6] | IC95 [7]
0.7 µM: IC95 [8]

C[C@@H]1[C@H](O)[C@@H](C)/C=C/C=C/C=C/C=C/C=C/C=C/C=C/[C@H](O[C@@H]2O[C@H](C)[C@@H](O)[C@H](N)[C@@H]2O)C[C@@H]2O[C@](O)(C[C@@H](O)C[C@@H](O)[C@H](O)CC[C@@H](O)C[C@@H](O)CC(=O)O[C@H]1C)C[C@H](O)[C@H]2C(=O)O [AMPHOTERICIN B]
0.54 µM: IC80 [9] | IC80 [10] | IC80 [12] | IC50 [14] | IC50 [16]
0.27 µM: IC80 [13]
1 µM: IC80 [11] | IC50 [15]

O=C(O)c1cccc(-n2nnnc2SCc2cc([N+](=O)[O-])cc([N+](=O)[O-])c2)c1
1000 µM: MIC [26] | MIC [27] | MIC [28] | MIC [29] | MIC [31] | MIC [32] | MIC [33] | MIC [34] | MIC [35]
500 µM: MIC [30] | IC95 [7]
> 500 µM: IC95 [17] | IC80 [9] | IC80 [18] | IC80 [10] | IC80 [19] | IC80 [11] | IC80 [20] | IC80 [12] | IC80 [21] | IC80 [13] | IC80 [22] | IC50 [14] | IC50 [23] | IC50 [15] | IC50 [24] | IC50 [16] | IC50 [25] | IC95 [5] | IC95 [36] | IC95 [6] | IC95 [37] | IC95 [38] | IC95 [8] | IC95 [39] | IC95 ([1]; ATCC 8739, ATCC 8739, 24 h) | IC95 [40] | IC95 ([2]; D 11750/08, 24 h) | IC95 [41] | IC95 ([3]; J 14368/08, 24 h) | IC95 [42] | IC95 ([4]; ATCC 9027, 24 h)

Reference: ChEMBL document CHEMBL3297661, “1-Substituted-5-[(3,5-dinitrobenzyl)sulfanyl]-1H-tetrazoles and their isosteric analogs: A new class of selective antitubercular agents active against drug-susceptible and multidrug-resistant mycobacteria” (Eur J Med Chem, 2014)
